Measured values as given in US20220056019A1, “FARNESOID X RECEPTOR AGONISTS AND USES THEREOF” (Metacrine, Inc., priority 2018, published 2022).

These molecules were tested against T1, hFXR (Homo sapiens, UniProt Q96RI1) (assay: In Vitro FXR Assay (TK): TK-ECRE-luc reporter in transfected CV-1 cells). Details: 18 hrs incubation, luminescence.
T1 construct: expressed in transfected cells; host or cells: CV-1 cells
T1 sequence (Q96RI1 1-486): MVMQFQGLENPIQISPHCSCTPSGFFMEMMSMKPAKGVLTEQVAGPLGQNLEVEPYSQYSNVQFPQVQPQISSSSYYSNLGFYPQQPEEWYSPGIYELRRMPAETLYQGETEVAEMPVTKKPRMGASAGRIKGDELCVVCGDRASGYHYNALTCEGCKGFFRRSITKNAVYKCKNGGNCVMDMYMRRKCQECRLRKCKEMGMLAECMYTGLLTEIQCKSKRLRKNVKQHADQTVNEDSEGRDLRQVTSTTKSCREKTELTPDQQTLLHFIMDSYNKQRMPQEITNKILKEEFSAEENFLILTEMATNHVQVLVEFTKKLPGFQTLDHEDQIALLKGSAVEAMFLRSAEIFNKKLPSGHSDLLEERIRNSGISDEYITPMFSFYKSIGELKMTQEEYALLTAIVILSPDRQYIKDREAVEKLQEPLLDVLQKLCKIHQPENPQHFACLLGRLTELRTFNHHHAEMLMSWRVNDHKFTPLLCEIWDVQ
T1 sequence (P19793 1-462 partner): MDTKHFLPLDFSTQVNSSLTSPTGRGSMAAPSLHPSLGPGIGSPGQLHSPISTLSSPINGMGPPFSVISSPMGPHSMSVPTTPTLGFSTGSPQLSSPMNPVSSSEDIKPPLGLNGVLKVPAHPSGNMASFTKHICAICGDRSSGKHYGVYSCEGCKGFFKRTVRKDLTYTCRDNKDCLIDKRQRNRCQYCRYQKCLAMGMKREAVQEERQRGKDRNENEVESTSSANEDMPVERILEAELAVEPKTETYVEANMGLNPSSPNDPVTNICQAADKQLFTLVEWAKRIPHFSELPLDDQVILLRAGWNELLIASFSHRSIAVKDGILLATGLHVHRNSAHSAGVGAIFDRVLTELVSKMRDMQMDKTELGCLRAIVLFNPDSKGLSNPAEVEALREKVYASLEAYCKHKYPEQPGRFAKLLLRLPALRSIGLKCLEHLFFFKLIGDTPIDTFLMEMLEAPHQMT
Format: cell-based
Summary of the method: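 Reporter gene assay: CV-1 cells co-expressing hFXR, hRXR, TK-ECRE-luc and pCMX-YFP after overnight transfection in charcoal-stripped serum. Treatment with serially diluted compounds lasted 18 hrs at 37 °C, followed by cell lysis and a luminescence measurement.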

| EC50 | SMILES |
| --- | --- |
| ≤ 50 nM | COc1ccc([C@H]2CC[C@](F)(CN(c3cccc(-c4cnn(C(C)C)c4)c3)C(=O)[C@H]3CC[C@H](OC(=O)N4CC(O)C4)CC3)CC2)cc1C [Compound 25.01, 4-((((trans)-1-Fluoro-4-(4-methoxy-3-methylphenyl)cyclohexyl)methyl)(3-(1-isopropyl-1H-pyrazol-4-yl)phenyl)carbamoyl)(trans-cyclohexyl) 3-hydroxyazetidine-1-carboxylate] |
| ≤ 50 nM | COc1ccc(C23CCC(CN(c4cc(-c5cnn(C(C)C)c5)ccn4)C(=O)[C@H]4CC[C@H](OC(=O)NC(C)(C)CO)CC4)(CC2)CC3)cc1C [Compound 4.46, 4-((4-(1-Isopropyl-1H-pyrazol-4-yl)pyridin-2-yl) ((4-(4-methoxy-3-methylphenyl)bicyclo [2.2.2]octan-1-yl)methyl)carbamoyl)cyclohexyl trans-(1-hydroxy-2-methylpropan-2-yl) carbamate] |
| ≤ 50 nM | COc1ccc(C23CCC(CN(c4ccnc(-c5cnn(C(C)C)c5)c4)C(=O)[C@H]4CC[C@H](OC(=O)N5CC(O)C5)CC4)(CC2)CC3)cc1C [Compound 4.59, 4-((2-(1-Isopropyl-1H-pyrazol-4-yl)pyridin-4-yl) ((4-(4-methoxy-3-methylphenyl)bicyclo [2.2.2]octan-1-yl)methyl)carbamoyl)(trans-cyclohexyl) 3-hydroxyazetidine-1-carboxylate] |
| ≤ 50 nM | COc1ccc([C@H]2CC[C@H](CN(c3cccc(-c4cnn(C(C)C)c4)c3)C(=O)[C@H]3CC[C@H](NC(=O)OC4CCOCC4)CC3)CC2)cc1C [Compound 6.06, Tetrahydro-2H-pyran-4-yl (trans-4-((3-(1-isopropyl-1H-pyrazol-4-yl)phenyl)((trans-4-(4-methoxy-3-methylphenyl)cyclohexyl)meth-yl)carbamoyl)cyclohexyl)carbamate] |
| ≤ 50 nM | Cc1ccc(C23CCC(CN(c4cc(-c5cnn(C(C)C)c5)ccn4)C(=O)[C@H]4CC[C@H](OC(=O)N5CC(O)C5)CC4)(CC2)CC3)cc1C [Compound 26.09, 4-(((4-(3,4-Dimethylphenyl)bicyclo[2.2.2]octan-1-yl)methyl)(4-(1-isopropyl-1H-pyrazol-4-yl)pyridin-2-yl)carbamoyl)cyclohexyl trans-3-hydroxyazetidine-1-carboxylate] |
| ≤ 50 nM | COc1ccc([C@H]2CC[C@H](CN(c3cc(-c4cnc(C5CC5)o4)ccn3)C(=O)[C@H]3CC[C@H](OC(=O)NCC(C)(C)O)CC3)CC2)cc1C [Compound 2.50, trans-4-((4-(2-Cyclopropyloxazol-5-yl)pyridin-2-yl)((trans-4-(4-methoxy-3-methylphenyl)cyclohexyl)methyl)carbamoyl)cyclohexyl (2-hydroxy-2-methylpropyl)carbamate] |
| 50 to 1000 nM | COc1ccc([C@H]2CC[C@H](CN(c3cccc(-c4cnn(C(C)C)c4)c3)C(=O)[C@H]3CC[C@H](NC(=O)COCCO)CC3)CC2)cc1C [Compound 13.01, trans-4-(2-(2-Hydroxyethoxy)acetamido)-N-(3-(1-isopropyl-1H-pyrazol-4-yl)phenyl)-N-((trans-4-(4-methoxy-3-methylphenyl)cyclohexyl)meth-yl)cyclohexanecarboxamide] |
| ≤ 50 nM | COc1ccc(C23CCC(CN(c4cc(-c5cnn(C(C)C)c5)ccn4)C(=O)[C@H]4CC[C@H](NC(=O)C(C)(C)O)CC4)(CC2)CC3)cc1C [Compound 9.03] |
| ≤ 50 nM | COc1ccc([C@H]2CC[C@H](CN(c3cccc(-c4coc(C5CC5)n4)c3)C(=O)[C@H]3CC[C@H](C(C)(C)O)CC3)CC2)nc1C [Compound 19, trans-N-(3-(2-Cyclopropyloxazol-4-yl)phenyl)-4-(2-hydroxypropan-2-yl)-N-((trans-4-(5-methoxy-6-methylpyridin-2-yl)cyclohexyl)methyl)cyclohexanecar-boxamide] |
| ≤ 50 nM | COc1ccc(C23CCC(CN(c4cc(-c5cnn(C6CCCC6)c5)ccn4)C(=O)[C@H]4CC[C@H](OC(=O)N5CC(CO)C5)CC4)(CC2)CC3)cc1C [Compound 23.09, 4-((4-(1-Cyclopentyl-1H-pyrazol-4-yl)pyridin-2-yl)((4-(4-methoxy-3-methylphenyl)bicyclo[2.2.2]octan-1-yl)methyl)carba-moyl)(trans-cyclohexyl) 3-(hydroxymethyl)azetidine-1-carboxylate] |
| ≤ 50 nM | COc1ccc(C23CCC(CN(c4cc(-c5cnn(C(C)C)c5)c(F)cn4)C(=O)[C@H]4CC[C@H](OC(=O)NCCCO)CC4)(CC2)CC3)cc1C [Compound 25.05, 4-((5-Fluoro-4-(1-isopropyl-1H-pyrazol-4-yl)pyridin-2-yl)((4-(4-methoxy-3-methylphenyl)bicyclo[2.2.2]octan-1-yl)methyl)carbamoyl)cyclohexyl trans-(3-hydroxypropyl)carbamate] |
| ≤ 50 nM | COc1ccc([C@H]2CC[C@H](CN(c3cc(-c4coc(C(C)C)n4)ccn3)C(=O)[C@H]3CC[C@H](OC(=O)NC(C)C)CC3)CC2)cc1C [Compound 2.44, trans-4-((4-(2-Isopropyloxazol-4-yl)pyridin-2-yl)(((trans)-4-(4-methoxy-3-methylphenyl)cyclohexyl)methyl)carbamoyl) cyclohexyl isopropylcarbamate] |
| ≤ 50 nM | COc1ccc([C@H]2CC[C@H](CN(c3cc(-c4cnc(C(C)C)s4)ccn3)C(=O)[C@H]3CC[C@H](OC(=O)NC4COC4)CC3)CC2)cc1C [Compound 2.55, trans-4-((4-(2-Isopropylthiazol-5-yl)pyridin-2-yl)(((trans)-4-(4-methoxy-3-methylphenyl)cyclohexyl)methyl)carbamoyl)cyclohexyl oxetan-3-ylcarbamate] |
| ≤ 50 nM | COc1ccc([C@H]2CC[C@H](CN(c3cc(-c4cnn(C(C)C)c4)ccn3)C(=O)[C@H]3CC[C@H](OC(=O)N4CCOCC4)CC3)CC2)cc1C [Compound 2.16, trans-4-((4-(1-Isopropyl-1H-pyrazol-4-yl)pyridin-2-yl)(((trans)-4-(4-methoxy-3-methylphenyl)cyclohexyl)methyl)carbamoyl)cyclohexyl morpholine-4-carboxylate] |
| 1000 to 10000 nM | COc1ccc([C@H]2CC[C@H](CN(c3cccc(-c4cnn(C(C)C)c4)c3)C(=O)[C@H]3CC[C@H](CN)CC3)CC2)cc1C [Compound 11, (trans)-4-(Aminomethyl)-N-(3-(1-isopropyl-1H-pyrazol-4-yl)phenyl)-N-(((trans)-4-(4-methoxy-3-methylphenyl)cyclohexyl)methyl)cyclohexanecarboxamide] |
| ≤ 50 nM | COc1ncc([C@H]2CC[C@H](CN(c3cc(-c4cnn(C(C)C)c4)ccn3)C(=O)[C@H]3CC[C@H](OC(=O)N4CC(N(C)C)C4)CC3)CC2)cc1C [Compound 1.04, trans-4-((4-(1-Isopropyl-1H-pyrazol-4-yl)pyridin-2-yl)(((trans)-4-(6-methoxy-5-methylpyridin-3-yl)cyclohexyl)methyl)carbamoyl) cyclohexyl 3-(dimethylamino)azetidine-1-carboxylate] |
| ≤ 50 nM | COc1ccc(C23CCC(CN(c4cc(-c5coc(C(C)C)n5)ccn4)C(=O)[C@H]4CC[C@H](OC(=O)NCCO)CC4)(CC2)CC3)cc1C [Compound 22, 4-((4-(2-Isopropyloxazol-4-yl)pyridin-2-yl)((4-(4-methoxy-3-methylphenyl)bicyclo[2.2.2]octan-1-yl)methyl)carbamoyl)cyclohexyl (2-hydroxyethyl)trans-carbamate] |
| ≤ 50 nM | COc1ccc([C@H]2CC[C@H](CN(c3cccc(-c4cnn(C(C)C)c4)c3)C(=O)[C@H]3CC[C@H](OC(=O)NCC(C)(C)O)CC3)CC2)cc1C#N [Compound 5.09, trans-4-((((trans)-4-(3-Cyano-4-methoxyphenyl)cyclohexyl)methyl)(3-(1-isopropyl-1H-pyrazol-4-yl)phenyl)carbamoyl) cyclohexyl(2-hydroxy-2-methylpropyl)carbamate] |
| ≤ 50 nM | COc1ccc(C23CCC(CN(c4cc(-c5cnn(C6(C)CCC6)c5)ccn4)C(=O)[C@H]4CC[C@H](OC(=O)N5CC(O)C5)CC4)(CC2)CC3)cc1C [Compound 24, 4-(((4-(4-Methoxy-3-methylphenyl)bicyclo[2.2.2]octan-1-yl)methyl)(4-(1-(1-methylcyclobutyl)-1H-pyrazol-4-yl)pyridin-2-yl)carbamoyl)cyclohexyl trans-3-hydroxyazetidine-1-carboxylate] |
| ≤ 50 nM | COc1ccc(C23CCC(CN(c4cc(-c5nnn(C(C)C)n5)ccn4)C(=O)[C@H]4CC[C@H](OC(=O)N5CC(O)C5)CC4)(CC2)CC3)cc1C [Compound 26.16, 4-((4-(2-Isopropyl-2H-tetrazol-5-yl)pyridin-2-yl)((4-(4-methoxy-3-methylphenyl)bicyclo[2.2.2]octan-1-yl)methyl)carbamoyl)cyclohexyl trans-3-hydroxyazetidine-1-carboxylate] |
